Source: ChEMBL document CHEMBL4196065, “Design and synthesis of new hybrids from 2-cyano-3,12-dioxooleana- 9-dien-28-oic acid and O2-(2,4-dinitrophenyl) diazeniumdiolate for intervention of drug-resistant lung cancer” (Eur J Med Chem, 2018)
Activity calls are given as the source filed them. The calls are words filed in the database; no cut-off is given here.

What was measured:
[1] = test system: A549; assay: cells; settings: Homo sapiens, A549, 72 h
Description: Antiproliferative activity against human A549 cells after 72 hrs by MTT assay

[2] = Resistant factor, ratio of IC50 for human A549/TR cells to IC50 for human A549 cells; assay type: functional
[3] = test system: A549/TR; assay: Antiproliferative activity against human A549/TR cells after 72 hrs by MTT assay; assay type: functional, cell-based
[4] = test system: A549/TR; assay: Antiproliferative activity against human A549/TR cells at 1 uM after 72 hrs by MTT assay; assay type: functional
[5] = test system: A549/TR; assay: Cell cycle arrest in human A549/TR cells assessed as accumulation at G2/M phase at 1.2 uM after 24 hrs by propidium iodide/RNase-staining based flow cytometric analysis (reference value: 24.7%); assay type: functional
[6] = test system: A549/TR; assay: Growth inhibition of human A549/TR cells at 1 uM after 72 hrs in presence of GSTpi inhibitor etacrynic acid by MTT assay; assay type: functional
[7] = test system: A549/TR; assay: Induction of apoptosis in human A549/TR cells assessed as early apoptotic cells at 2.4 uM after 24 hrs by Annexin-V-FITC/propidium iodide staining-based flow cytometric analysis (reference value: 3.42%); assay type: functional
[8] = test system: A549/TR; assay: Induction of apoptosis in human A549/TR cells assessed as late apoptotic cells at 1.2 uM after 24 hrs by Annexin-V-FITC/propidium iodide staining-based flow cytometric analysis (reference value: 1.24%); assay type: functional
[9] = test system: A549/TR; assay: Induction of apoptosis in human A549/TR cells after 24 hrs by Annexin-V-FITC/propidium iodide staining-based flow cytometric analysis; assay type: functional, cell-based
[10] = test system: A549/TR; assay: Downregulation of Lon expression in human A549/TR cells after 24 hrs by Western blot analysis; assay type: functional, cell-based
[11] = test system: A549/TR; assay: Growth inhibition of human A549/TR cells at 1 uM after 72 hrs in presence of ROS scavenger NAC by MTT assay; assay type: functional
[12] = test system: A549/TR; assay: Induction of nitric oxide production in human A549/TR cells at 50 uM after 6 hrs by Griess assay; assay type: functional, cell-based
[13] = test system: A549/TR; assay: Growth inhibition of human A549/TR cells at 1 uM after 72 hrs in presence of NO scavenger hemoglobin by MTT assay; assay type: functional
[14] = Potency index, ratio of taxol IC50 to compound IC50 for antiproliferative activity against human A549/TR cells; assay type: functional
[15] = test system: A549/TR; assay: Induction of apoptosis in human A549/TR cells assessed as viable cells at 2.4 uM after 24 hrs by Annexin-V-FITC/propidium iodide staining-based flow cytometric analysis (reference value: 95.1%); assay type: functional; settings: read-out: Activity
[16] = test system: A549/TR; assay: Induction of apoptosis in human A549/TR cells assessed as late apoptotic cells at 2.4 uM after 24 hrs by Annexin-V-FITC/propidium iodide staining-based flow cytometric analysis (reference value: 1.24%); assay type: functional
[17] = test system: A549/TR; assay: Induction of apoptosis in human A549/TR cells assessed as early apoptotic cells at 1.2 uM after 24 hrs by Annexin-V-FITC/propidium iodide staining-based flow cytometric analysis (reference value: 3.42%); assay type: functional
[18] = test system: A549/TR; assay: Cell cycle arrest in human A549/TR cells assessed as accumulation at G0/G1 phase at 2.4 uM after 24 hrs by propidium iodide/RNase-staining based flow cytometric analysis (reference value: 62.5%); assay type: functional
[19] = test system: A549/TR; assay: Induction of apoptosis in human A549/TR cells assessed as necrotic cells at 4.8 uM after 24 hrs by Annexin-V-FITC/propidium iodide staining-based flow cytometric analysis (reference value: 0.22%); assay type: functional
[20] = test system: A549/TR; assay: Cell cycle arrest in human A549/TR cells after 24 hrs by propidium iodide/RNase-staining based flow cytometric analysis; assay type: functional
[21] = test system: A549/TR; assay: Cell cycle arrest in human A549/TR cells assessed as accumulation at G2/M phase at 2.4 uM after 24 hrs by propidium iodide/RNase-staining based flow cytometric analysis (reference value: 24.7%); assay type: functional
[22] = test system: A549/TR; assay: Induction of ROS generation in human A549/TR cells after 24 hrs by DCFH-DA dye-based flow cytometric analysis; assay type: functional, cell-based
[23] = test system: A549/TR; assay: Induction of apoptosis in human A549/TR cells assessed as necrotic cells at 2.4 uM after 24 hrs by Annexin-V-FITC/propidium iodide staining-based flow cytometric analysis (reference value: 0.22%); assay type: functional
[24] = test system: A549/TR; assay: Cell cycle arrest in human A549/TR cells assessed as accumulation at G0/G1 phase at 1.2 uM after 24 hrs by propidium iodide/RNase-staining based flow cytometric analysis (reference value: 62.5%); assay type: functional
[25] = test system: MRC5; assay: Antiproliferative activity against human MRC5 cells after 72 hrs by MTT assay; assay type: cell-based; settings: MRC5, 72 h
[26] = test system: A549/TR; assay: Cell cycle arrest in human A549/TR cells assessed as accumulation at G0/G1 phase at 4.8 uM after 24 hrs by propidium iodide/RNase-staining based flow cytometric analysis (reference value: 62.5%); assay type: functional
[27] = test system: MRC5; assay: Induction of nitric oxide production in human MRC5 cells at 50 uM after 6 hrs by Griess assay; assay type: cell-based; settings: mrc5, 6 h
[28] = test system: A549/TR; assay: Induction of apoptosis in human A549/TR cells assessed as viable cells at 1.2 uM after 24 hrs by Annexin-V-FITC/propidium iodide staining-based flow cytometric analysis (reference value: 95.1%); assay type: functional; settings: read-out: Activity
[29] = test system: A549/TR; assay: Cell cycle arrest in human A549/TR cells assessed as accumulation at G2/M phase at 4.8 uM after 24 hrs by propidium iodide/RNase-staining based flow cytometric analysis (reference value: 24.7%); assay type: functional
[30] = test system: A549/TR; assay: Induction of apoptosis in human A549/TR cells assessed as necrotic cells at 1.2 uM after 24 hrs by Annexin-V-FITC/propidium iodide staining-based flow cytometric analysis (reference value: 0.22%); assay type: functional
[31] = test system: A549/TR; assay: Induction of apoptosis in human A549/TR cells assessed as early apoptotic cells at 4.8 uM after 24 hrs by Annexin-V-FITC/propidium iodide staining-based flow cytometric analysis (reference value: 3.42%); assay type: functional
[32] = test system: A549/TR; assay: Induction of apoptosis in human A549/TR cells assessed as viable cells at 4.8 uM after 24 hrs by Annexin-V-FITC/propidium iodide staining-based flow cytometric analysis (reference value: 95.1%); assay type: functional; settings: read-out: Activity
[33] = test system: A549/TR; assay: Induction of apoptosis in human A549/TR cells assessed as late apoptotic cells at 4.8 uM after 24 hrs by Annexin-V-FITC/propidium iodide staining-based flow cytometric analysis (reference value: 1.24%); assay type: functional
[34] = test system: A549/TR; assay: Induction of ROS generation in human A549/TR cells at 2.4 to 9.6 uM after 24 hrs by DCFH-DA dye-based flow cytometric analysis; assay type: functional, cell-based
[35] = test system: A549/TR; assay: Downregulation of Lon expression in human A549/TR cells at 4.8 uM after 24 hrs by Western blot analysis; assay type: functional, cell-based

## CC(=O)O[C@H]1C(=O)[C@@]2(C)[C@H]([C@H](OC(=O)c3ccccc3)[C@]3(O)C[C@H](OC(=O)[C@H](O)[C@@H](NC(=O)c4ccccc4)c4ccccc4)C(C)=C1C3(C)C)[C@]1(OC(C)=O)CO[C@@H]1C[C@@H]2O [PACLITAXEL]
[1]
  IC50: 7 nM
[2]
  Ratio IC50: 445
[3]
  IC50: 3110 nM

## CN(CCO)/[N+]([O-])=N/Oc1cc(NCCOC(=O)[C@]23CCC(C)(C)C[C@H]2[C@H]2C(=O)C=C4[C@@]5(C)C=C(C#N)C(=O)C(C)(C)[C@@H]5CC[C@@]4(C)[C@]2(C)CC3)c([N+](=O)[O-])cc1[N+](=O)[O-]
[1]
  IC50: 1440 nM
[2]
  Ratio IC50: 0.6
[3]
  IC50: 820 nM
[4]
  Activity: >50%

## CN(CCO)/[N+]([O-])=N/Oc1cc(N2CCN(C(=O)[C@]34CCC(C)(C)C[C@H]3[C@H]3C(=O)C=C5[C@@]6(C)C=C(C#N)C(=O)C(C)(C)[C@@H]6CC[C@@]5(C)[C@]3(C)CC4)CC2)c([N+](=O)[O-])cc1[N+](=O)[O-]
[5]
  Activity: 28.3%
[6]
  growth inhibition (GI): inactive
[7]
  Activity: 12.8%
[8]
  Activity: 3.09%
[9]
  Activity: Dose-dependent effect
[10]
  Activity: Dose-dependent effect
[11]
  growth inhibition (GI): inactive
[12]
  Activity: Active
[13]
  growth inhibition (GI): inactive
[1]
  IC50: 1070 nM
[2]
  Ratio IC50: 0.3
[3]
  IC50: 349 nM
[14]
  Ratio IC50: 10
[15]
  viability at 2.4 µM: 70%
[16]
  Activity: 14.4%
[17]
  Activity: 5.11%
[18]
  Activity: 47.9%
[19]
  Activity: 3.15%
[20]
  Activity: Dose-dependent effect
[21]
  Activity: 38.9%
[22]
  Activity: Dose-dependent effect
[23]
  Activity: 2.78%
[24]
  Activity: 61.3%
[25]
  IC50: 1600 nM
[26]
  Activity: 39.4%
[27]
  Activity: Toxic
[28]
  viability at 1.2 µM: 91.6%
[4]
  Activity: >50%
[29]
  Activity: 48.3%
[30]
  Activity: 0.27%
[31]
  Activity: 15.8%
[32]
  viability at 4.8 µM: 59.7%
[33]
  Activity: 21.4%

## C[C@H](N)C(=O)OCCN(C)/[N+]([O-])=N/Oc1cc(NCCOC(=O)[C@]23CCC(C)(C)C[C@H]2[C@H]2C(=O)C=C4[C@@]5(C)C=C(C#N)C(=O)C(C)(C)[C@@H]5CC[C@@]4(C)[C@]2(C)CC3)c([N+](=O)[O-])cc1[N+](=O)[O-]
[1]
  IC50: 1440 nM
[2]
  Ratio IC50: 0.8
[3]
  IC50: 1090 nM
[4]
  Activity: >50%

## CC1(C)CC[C@]2(C(=O)N3CCN(c4cc(O/N=[N+](\[O-])N5CCOCC5)c([N+](=O)[O-])cc4[N+](=O)[O-])CC3)CC[C@]3(C)[C@H](C(=O)C=C4[C@@]5(C)C=C(C#N)C(=O)C(C)(C)[C@@H]5CC[C@]43C)[C@@H]2C1
[1]
  IC50: 1080 nM
[2]
  Ratio IC50: 0.9
[3]
  IC50: 941 nM
[4]
  Activity: >50%

## COC(=O)[C@]12CCC(C)(C)C[C@H]1[C@H]1C(=O)C=C3[C@@]4(C)C=C(C#N)C(=O)C(C)(C)[C@@H]4CC[C@@]3(C)[C@]1(C)CC2 [BARDOXOLONE METHYL]
[5]
  Activity: 24.9%
[7]
  Activity: 6.14%
[8]
  Activity: 0.8%
[34]
  Activity: Active
[12]
  Activity: inactive
[35]
  Activity: Active
[1]
  IC50: 2070 nM
[2]
  Ratio IC50: 0.8
[3]
  IC50: 1700 nM
[15]
  viability at 2.4 µM: 91.8%
[16]
  Activity: 1.95%
[17]
  Activity: 4.06%
[18]
  Activity: 54.7%
[19]
  Activity: 0.17%
[21]
  Activity: 32.1%
[23]
  Activity: 0.13%
[24]
  Activity: 62.3%
[26]
  Activity: 47.4%
[27]
  Activity: Non-Toxic
[28]
  viability at 1.2 µM: 94.9%
[29]
  Activity: 39.4%
[30]
  Activity: 0.14%
[31]
  Activity: 7.36%
[32]
  viability at 4.8 µM: 83.4%
[33]
  Activity: 3.03%

## CCOC(=O)N1CCN(/[N+]([O-])=N/Oc2ccc([N+](=O)[O-])cc2[N+](=O)[O-])CC1
[5]
  Activity: 24.5%
[7]
  Activity: 5.63%
[8]
  Activity: 2.38%
[34]
  Activity: Active
[12]
  Activity: Active
[35]
  Activity: Active
[1]
  IC50: 2310 nM
[2]
  Ratio IC50: 0.9
[3]
  IC50: 1990 nM
[15]
  viability at 2.4 µM: 92.1%
[16]
  Activity: 1.94%
[17]
  Activity: 6.75%
[18]
  Activity: 54.4%
[19]
  Activity: 1.04%
[21]
  Activity: 32%
[23]
  Activity: 0.37%
[24]
  Activity: 65.3%
[26]
  Activity: 47.7%
[27]
  Activity: Toxic
[28]
  viability at 1.2 µM: 90.5%
[29]
  Activity: 38.7%
[30]
  Activity: 0.34%
[31]
  Activity: 7.76%
[32]
  viability at 4.8 µM: 87%
[33]
  Activity: 4.19%

## C[C@H](N)C(=O)OCCN(C)/[N+]([O-])=N/Oc1cc(N2CCN(C(=O)[C@]34CCC(C)(C)C[C@H]3[C@H]3C(=O)C=C5[C@@]6(C)C=C(C#N)C(=O)C(C)(C)[C@@H]6CC[C@@]5(C)[C@]3(C)CC4)CC2)c([N+](=O)[O-])cc1[N+](=O)[O-]
[1]
  IC50: 1070 nM
[2]
  Ratio IC50: 0.7
[3]
  IC50: 697 nM
[4]
  Activity: >50%
